According to US6696495B2, “Treatment of disorders secondary to organic impairments” (Snowden Pharmaceuticals, LLC, priority 1998, dated 2004):

Experiments:
[1] = test system: Sick Building Syndrome (SBS); assay: Case history 20; format: in vivo, human; details: sibutramine 5 mg. t.i.d. Person
Excerpt: 20. Sick Building Syndrome (SBS)
This person began to note an increasing fatigue, poor concentration, rash, and wheezing which they related to exposure to unknown foreigns in the large building in which they worked. They also noted that more than 40 other employees had similar symptoms. […] They were then forced to leave their job in this building with a gradual relief of all symptoms over the next several weeks.

[2] = test system: Fibromyalgia—Chronic Fatigue Syndrome
[3] = test system: Torticollis, Lingual Dystonia and Dyskinesia; assay: Case history 23; format: in vivo, human
[4] = test system: Reflex Sympathetic Dystrophy Syndrome (RSDS); assay: Case history 22; format: in vivo, human; details: sibutramine 10 mg. b.i.d. Person
Excerpt: 22. Reflex Sympathetic Dystrophy Syndrome (RSDS)
A person injured their left ankle 14 months prior to their initial visit. The left lower leg then became red and then black, hot, swollen, and extremely painful. RSD was diagnosed and multiple treatments were unsuccessful. After nine months the skin gradually sloughed and the limb turned cold but remained painful, especially to touch. The patient also noted profuse swelling of the affected left leg, a tremor of the left hand, and many visual-spatial problems characteristic of right cerebral dysfunction. They were declared totally disabled. […] This enabled them to discontinue their other medication.

[5] = test system: Cerebral Palsy; assay: Case history 26; format: in vivo, human; details: sibutramine 15 mg once a day; person two
Excerpt: 26. The Symptoms Due to Cerebral Palsy
person two had suffered from Cerebral Palsy since birth. Their whole life they had little control of their right arm and hand, and they could not keep their arm straight and down by their side except for short periods of time and using the utmost concentration to do so. Most often they kept their arm in an upright position with their hand near or above their shoulder and their elbow bent. They had no practical use from the arm other than to hold something against their chest. Their hand was also rigid and kept in a loose fist configuration. Fine motor movements of the fingers were impossible for them. […] They had gained control of the right arm and their hand. They are able to hold their hand down by their side for longer periods of time and less concentration required to do so. For the first time in their life they were able to make controlled movements and raise their arm and hand above their head.

CC(C)CC(N(C)C)C1(c2ccc(Cl)cc2)CCC1.Cl (stereo not drawn) [sibutramine, N,N-dimethyl-1-[1-(4-chlorophenyl)cyclobutyl]-3-methylbutylamine hydrochloride]
cognitive, fatigue and allergic symptoms [1]: rapid relief of the cognitive and fatigue symptoms, but no relief from the allergic symptomatology
sleep ([2]; first night after sibutramine): difficulty in getting to sleep that first night
alertness and concentration ([2]; sibutramine 5 mg tid p.o.): became alert and able to concentrate
fatigue and energy ([2]; sibutramine 5 mg tid p.o.): their fatigue diminished and their energy increased substantially
pain points ([2]; sibutramine 5 mg tid p.o.): their pain points were still tender but that the burning sensation at these points had abated within 4 days
time to response after the first 5 mg capsule ([2]; sibutramine 5 mg tid p.o. Person): ≤ 2 h
symptoms with continued dosing ([3]; 15 mg sibutramine every six hours): prolonged and sustained relief of their symptoms
pain ([3]; sibutramine 15): their pain subsided
tremors, mouth opening, arm movement ([3]; sibutramine 15): their tremors considerably slowed, their mouth was no. longer pulling open as dramatically and their arm was not moving noticeably
time to response ([3]; sibutramine 15, person): ≤ 45 min
cognition and pain [4]: rapidly became cognitive and had pain relief
symptoms due to Cerebral Palsy, control of right arm and hand [5]: their symptoms due to Cerebral Palsy were relieved
